Measured values published in ChEMBL document CHEMBL1681651, “A broad spectrum anticancer nucleoside with selective toxicity against human colon cells in vitro” (2011).

Tests used:
Format in all cases: functional
HL-60(TB) [1] = assay: Growth inhibition of human HL-60(TB) cells assessed as cell growth at 100 uM after 48 hrs by SRB assay; conditions: HL-60, 48 h, read-out: Activity
SW-620 [2] = assay: Growth inhibition of human SW620 cells assessed as cell growth at 1 uM after 48 hrs by SRB assay; conditions: SW-620, 48 h, read-out: Activity
[3] = Growth inhibition of human Hs 578T cells after 48 hrs by […] growth inhibition assay
NCI/ADR-RES = assay: Growth inhibition of human NCI/ADR-RES cells assessed as cell growth at 1 mM after 48 hrs by SRB assay; conditions: read-out: Activity
SW-620 [4] = assay: Growth inhibition of human SW620 cells after 48 hrs by […] growth inhibition assay; conditions: SW-620, 48 h
HL-60(TB) [5] = assay: Growth inhibition of human HL-60(TB) cells assessed as cell growth at 1 uM after 48 hrs by SRB assay; conditions: HL-60, 48 h, read-out: Activity
K562 = assay: Growth inhibition of human K562 cells assessed as cell growth at 1 uM after 48 hrs by SRB assay; conditions: K562, 48 h, read-out: Activity
HL-60(TB) [6] = assay: Growth inhibition of human HL-60(TB) cells assessed as cell growth at 0.1 uM after 48 hrs by SRB assay; conditions: HL-60, 48 h, read-out: Activity
PC-3 = assay: Growth inhibition of human PC3 cells assessed as cell growth at 1 uM after 48 hrs by SRB assay; conditions: PC-3, 48 h, read-out: Activity
MOLT-4 = assay: Growth inhibition of human MOLT4 cells assessed as cell growth at 1 uM after 48 hrs by SRB assay; conditions: MOLT-4, 48 h, read-out: Activity
MDA-MB-468 [7] = assay: Growth inhibition of human MDA-MB-468 cells assessed as cell growth at 1 uM after 48 hrs by SRB assay; conditions: MDA-MB-468, 48 h, read-out: Activity
MDA-MB-468 [8] = assay: Growth inhibition of human MDA-MB-468 cells assessed as cell growth at 0.1 uM after 48 hrs by SRB assay; conditions: MDA-MB-468, 48 h, read-out: Activity
MDA-MB-468 [9] = assay: Growth inhibition of human MDA-MB-468 cells assessed as cell growth at 1 mM after 48 hrs by SRB assay; conditions: MDA-MB-468, 48 h, read-out: Activity
MDA-MB-468 [10] = assay: Growth inhibition of human MDA-MB-468 cells assessed as cell growth at 100 uM after 48 hrs by SRB assay; conditions: MDA-MB-468, 48 h, read-out: Activity
[11] = read-out: LC50 (the source's name)
[12] = read-out: pLC50 (the source's name) (converted)

Row | SMILES | growth at 100 µM (HL-60(TB) [1]) | growth at 1 µM (SW-620 [2]) | GI50 ([3]; read-out: GI50) | CC50 [3, 11] | TGI ([3]; read-out: TGI) | GI50 ([3]; read-out: pGI50 (converted)) | CC50 [3, 12] | TGI ([3]; read-out: pTGI (converted)) | growth at 1000 µM (NCI/ADR-RES) | GI50 (SW-620 [4]; read-out: GI50) | CC50 (SW-620 [4]; [11]) | TGI (SW-620 [4]; read-out: TGI) | GI50 (SW-620 [4]; read-out: pGI50 (converted)) | CC50 (SW-620 [4]; [12]) | TGI (SW-620 [4]; read-out: pTGI (converted)) | growth at 1 µM (HL-60(TB) [5]) | growth at 1 µM (K562) | growth at 0.1 µM (HL-60(TB) [6]) | growth at 1 µM (PC-3) | growth at 1 µM (MOLT-4) | further results
1 | CCOC(=O)C[C@H]1[C@@H](O[Si](C)(C)C(C)(C)C)[C@H](n2cnc3c(NC(=O)Nc4ccccc4)ncnc32)O[C@@H]1CNC(=O)NC | -5% | 94% | 3.6 µM | > 100 µM | 53.6 µM | 3.63 µM | > 100 µM | 53.7 µM | 59% | 4.8 µM | > 100 µM | 28.4 µM | 4.79 µM | > 100 µM | 28.2 µM | 110% | 93% | 85% | 126% | 84% | –
2 | CNC(=O)NC[C@H]1O[C@@H](n2cnc3c(NC(=O)Nc4ccccc4)ncnc32)[C@H](O[Si](C)(C)C(C)(C)C)[C@@H]1O[Si](C)(C)C(C)(C)C | – | – | – | – | – | – | – | – | – | – | – | – | – | – | – | – | – | – | 91% | – | growth at 1 µM (MDA-MB-468 [7]): 104%; growth at 0.1 µM (MDA-MB-468 [8]): 101%; growth at 1000 µM (MDA-MB-468 [9]): -35%; growth at 100 µM (MDA-MB-468 [10]): 6%
3 | CNC(=O)NC[C@H]1O[C@@H](n2cnc3c(NC(=O)Nc4ccccc4)ncnc32)[C@H](O[Si](C)(C)C(C)(C)C)[C@@H]1CC(=O)N(C)OC | -48% | 102% | 5.79 µM | > 100 µM | > 100 µM | 5.75 µM | > 100 µM | > 100 µM | 55% | > 100 µM | > 100 µM | > 100 µM | > 100 µM | > 100 µM | > 100 µM | 86% | 95% | 95% | – | 90% | –
